Measurements reported in PubChem BioAssay AID2060483 (Molecular Pharmacology Branch, DTP, NCI, 2025).

System: K24384-001-R-PDC complex spheroids, viability
Experiment: Anticancer human tumor K24384-001-R-PDC patient-derived pancreatic adenocarcinoma cell line growth inhibition [GQUAD]
Conditions: for IC50: curve of first compound; for viability, T/C: stronger effect = lower value; active = viability on the fitted dose curve at most 10% of control; inactive = the rest
Method in brief: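 Tumor cells were grown as complex spheroids with HUVEC endothelial cells and mesenchymal stem cells as stroma. G-quadruplex stabilizers were combined with targeted agents over half-log dilutions from near the clinical Cmax, or from 10 microM.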

[1] = second compound 0.0316 µM, first compound 0.0316 µM
[2] = second compound 0.0316 µM, first compound 0.316 µM
[3] = second compound 0.1 µM, first compound 0.0316 µM
[4] = second compound 0.1 µM, first compound 0.316 µM
[5] = second compound 0.316 µM, first compound 0.0316 µM
[6] = second compound 0.316 µM, first compound 0.316 µM
[7] = second compound 1 µM, first compound 0.0316 µM
[8] = second compound 1 µM, first compound 0.316 µM
[9] = second compound 3.16 µM, first compound 0.0316 µM
[10] = second compound 3.16 µM, first compound 0.316 µM
[11] = second compound 10 µM, first compound 0.0316 µM
[12] = second compound 10 µM, first compound 0.316 µM
[13] = second compound 0.0316 µM, first compound 0.1 µM
[14] = second compound 0.0316 µM, first compound 1 µM
[15] = second compound 0.0316 µM, first compound 3.16 µM
[16] = second compound 0.0316 µM, first compound 10 µM
[17] = second compound 0.1 µM, first compound 0.1 µM
[18] = second compound 0.1 µM, first compound 1 µM
[19] = second compound 0.1 µM, first compound 3.16 µM
[20] = second compound 0.1 µM, first compound 10 µM
[21] = second compound 0.316 µM, first compound 0.1 µM
[22] = second compound 0.316 µM, first compound 1 µM
[23] = second compound 0.316 µM, first compound 3.16 µM
[24] = second compound 0.316 µM, first compound 10 µM
[25] = second compound 1 µM, first compound 0.1 µM
[26] = second compound 1 µM, first compound 1 µM
[27] = second compound 1 µM, first compound 3.16 µM
[28] = second compound 1 µM, first compound 10 µM
[29] = second compound 3.16 µM, first compound 0.1 µM
[30] = second compound 3.16 µM, first compound 1 µM
[31] = second compound 3.16 µM, first compound 3.16 µM
[32] = second compound 3.16 µM, first compound 10 µM
[33] = second compound 10 µM, first compound 0.1 µM
[34] = second compound 10 µM, first compound 1 µM
[35] = second compound 10 µM, first compound 3.16 µM
[36] = second compound 10 µM, first compound 10 µM
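Note: spheroids exposed to compounds for seven days.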

CC[C@@]1(O)C(=O)OCc2c1cc1n(c2=O)Cc2cc3c(CN(C)C)c(O)ccc3nc2-1 + Cc1cnc(CNC(=O)c2c(=O)c3ccc(N4CCCN(C)CC4)nc3n3c2sc2ccccc23)cn1
> 316 nM: IC50 (second compound 0.0316 µM)
< 0.999 nM: IC50 (second compound 1 µM) | IC50 (second compound 3.16 µM) | IC50 (second compound 10 µM)
214 nM: IC50 (second compound 0.1 µM)
inactive: viability, T/C (second compound 0.0316 µM, first compound 0.000999 µM) 96.3% | viability, T/C (second compound 0.0316 µM, first compound 0.00316 µM) 71.1% | viability, T/C (second compound 0.0316 µM, first compound 0.00999 µM) 105% | viability, T/C [1] 64.1% | viability, T/C (second compound 0.0316 µM, first compound 0.0999 µM) 58.5% | viability, T/C [2] 44.1% | viability, T/C (second compound 0.1 µM, first compound 0.000999 µM) 64.1% | viability, T/C (second compound 0.1 µM, first compound 0.00316 µM) 69% | viability, T/C (second compound 0.1 µM, first compound 0.00999 µM) 64.8% | viability, T/C [3] 58% | viability, T/C (second compound 0.1 µM, first compound 0.0999 µM) 56.5% | viability, T/C [4] 47.1% | viability, T/C (second compound 0.316 µM, first compound 0.000999 µM) 56.1% | viability, T/C (second compound 0.316 µM, first compound 0.00316 µM) 55.2% | viability, T/C (second compound 0.316 µM, first compound 0.00999 µM) 47.8% | viability, T/C [5] 49.9% | viability, T/C (second compound 0.316 µM, first compound 0.0999 µM) 60.3% | viability, T/C [6] 39.8% | viability, T/C (second compound 1 µM, first compound 0.000999 µM) 40.7% | viability, T/C (second compound 1 µM, first compound 0.00316 µM) 51.3% | viability, T/C (second compound 1 µM, first compound 0.00999 µM) 36.5% | viability, T/C [7] 42.7% | viability, T/C (second compound 1 µM, first compound 0.0999 µM) 46% | viability, T/C [8] 37.6% | viability, T/C (second compound 3.16 µM, first compound 0.000999 µM) 34.8% | viability, T/C (second compound 3.16 µM, first compound 0.00316 µM) 39.1% | viability, T/C (second compound 3.16 µM, first compound 0.00999 µM) 34.3% | viability, T/C [9] 39.6% | viability, T/C (second compound 3.16 µM, first compound 0.0999 µM) 40.5% | viability, T/C [10] 30% | viability, T/C (second compound 10 µM, first compound 0.000999 µM) 34.1% | viability, T/C (second compound 10 µM, first compound 0.00316 µM) 22.9% | viability, T/C (second compound 10 µM, first compound 0.00999 µM) 36.3% | viability, T/C [11] 38.4% | viability, T/C (second compound 10 µM, first compound 0.0999 µM) 21.2%
137 nM: IC50 (second compound 0.316 µM)
active: viability, T/C [12] 0.39%

COc1cc(C2c3cc4c(cc3C(OC3OC5COC(C)OC5C(O)C3O)C3COC(=O)C23)OCO4)cc(OC)c1O (stereo not drawn) + Cc1cnc(CNC(=O)c2c(=O)c3ccc(N4CCCN(C)CC4)nc3n3c2sc2ccccc23)cn1
inactive: viability, T/C [1] 79.9% | viability, T/C [13] 71.2% | viability, T/C [2] 99.5% | viability, T/C [14] 45.1% | viability, T/C [15] 45.3% | viability, T/C [16] 25.9% | viability, T/C [3] 62.1% | viability, T/C [17] 68.8% | viability, T/C [4] 61.3% | viability, T/C [18] 57.5% | viability, T/C [19] 47.8% | viability, T/C [20] 34.1% | viability, T/C [5] 46.1% | viability, T/C [21] 51.4% | viability, T/C [6] 46% | viability, T/C [22] 46.4% | viability, T/C [23] 52.4% | viability, T/C [24] 34.8% | viability, T/C [7] 35.1% | viability, T/C [25] 49.1% | viability, T/C [8] 38.1% | viability, T/C [26] 46% | viability, T/C [27] 43.4% | viability, T/C [28] 30.8% | viability, T/C [9] 36.3% | viability, T/C [29] 44.9% | viability, T/C [10] 41.2% | viability, T/C [30] 47.1% | viability, T/C [31] 39% | viability, T/C [32] 26% | viability, T/C [11] 30.4% | viability, T/C [33] 28.1% | viability, T/C [12] 32.3% | viability, T/C [34] 33% | viability, T/C [35] 10.4%
865 nM: IC50 (second compound 0.0316 µM)
2380 nM: IC50 (second compound 0.1 µM)
active: viability, T/C [36] 0.63%
< 31.6 nM: IC50 (second compound 1 µM) | IC50 (second compound 3.16 µM) | IC50 (second compound 10 µM)
31.6 nM: IC50 (second compound 0.316 µM)

COc1cccc2c1C(=O)c1c(O)c3c(c(O)c1C2=O)CC(O)(C(=O)CO)CC3OC1CC(N)C(O)C(C)O1 (stereo not drawn) + Cc1cnc(CNC(=O)c2c(=O)c3ccc(N4CCCN(C)CC4)nc3n3c2sc2ccccc23)cn1
280 nM: IC50 (second compound 0.0316 µM)
85.2 nM: IC50 (second compound 0.316 µM)
inactive: viability, T/C [1] 74.3% | viability, T/C [13] 62.1% | viability, T/C [2] 50.3% | viability, T/C [14] 17.6% | viability, T/C [3] 71.2% | viability, T/C [17] 55% | viability, T/C [4] 42.7% | viability, T/C [18] 18.8% | viability, T/C [5] 58.2% | viability, T/C [21] 48% | viability, T/C [6] 33.3% | viability, T/C [22] 20.6% | viability, T/C [7] 35.4% | viability, T/C [25] 46.6% | viability, T/C [8] 35.1% | viability, T/C [26] 19.4% | viability, T/C [9] 40% | viability, T/C [29] 44.3% | viability, T/C [10] 36.1% | viability, T/C [30] 18.7% | viability, T/C [11] 33.3% | viability, T/C [33] 25.9% | viability, T/C [12] 24.4%
< 31.6 nM: IC50 (second compound 1 µM) | IC50 (second compound 3.16 µM) | IC50 (second compound 10 µM)
167 nM: IC50 (second compound 0.1 µM)
active: viability, T/C [15] 5.43% | viability, T/C [16] 5.41% | viability, T/C [19] 6.08% | viability, T/C [20] 5.63% | viability, T/C [23] 4.64% | viability, T/C [24] 6.62% | viability, T/C [27] 2.42% | viability, T/C [28] 3.74% | viability, T/C [31] 0.26% | viability, T/C [32] 1.49% | viability, T/C [34] 0.41% | viability, T/C [35] 0.26% | viability, T/C [36] 0.2%

O=c1[nH]cc(F)c(=O)[nH]1 + Cc1cnc(CNC(=O)c2c(=O)c3ccc(N4CCCN(C)CC4)nc3n3c2sc2ccccc23)cn1
inactive: viability, T/C [1] 78.1% | viability, T/C [13] 90.8% | viability, T/C [2] 78.9% | viability, T/C [14] 45.7% | viability, T/C [15] 53.1% | viability, T/C [16] 40% | viability, T/C [3] 55.8% | viability, T/C [17] 68.3% | viability, T/C [4] 69.5% | viability, T/C [18] 50.9% | viability, T/C [19] 70.9% | viability, T/C [20] 50.4% | viability, T/C [5] 45.7% | viability, T/C [21] 47.3% | viability, T/C [6] 51.7% | viability, T/C [22] 41.8% | viability, T/C [23] 48.2% | viability, T/C [24] 47% | viability, T/C [7] 35.9% | viability, T/C [25] 46.4% | viability, T/C [8] 41.9% | viability, T/C [26] 48.6% | viability, T/C [27] 53.9% | viability, T/C [28] 38.2% | viability, T/C [9] 33.3% | viability, T/C [29] 37% | viability, T/C [10] 37.1% | viability, T/C [30] 49.7% | viability, T/C [31] 47.1% | viability, T/C [32] 34% | viability, T/C [11] 28.3% | viability, T/C [33] 25.2% | viability, T/C [12] 30.6% | viability, T/C [34] 35.4% | viability, T/C [35] 19.8% | viability, T/C [36] 23.1%
877 nM: IC50 (second compound 0.0316 µM)
> 10000 nM: IC50 (second compound 0.1 µM)
< 31.6 nM: IC50 (second compound 0.316 µM) | IC50 (second compound 1 µM) | IC50 (second compound 3.16 µM) | IC50 (second compound 10 µM)
